{
  "source": "patent US11903907B2",
  "about": "“Soluble honokiol derivatives” (TAIPEI MEDICAL UNIVERSITY, priority 2017, dated 2024)",
  "key": {"[1]": {"test_system": "mouse tail transection model (hemostasis)", "assay": "Bleeding time, mouse tail transection model", "assay_type": "in vivo, mice", "details": "0.5 and 1 mg/kg i.v.; measured 10 min after administration", "experimental": "(§1) Coronal sections of 2,3,5-triphenyltetrazolium chloride (TTC)-stained brains were taken after middle cerebral artery occlusion (MCAO) in the vehicle group treated with an isovolumetric solvent (normal saline, intravenous [i.v.]), and groups treated with HP-TMU (0.25, 0.5 and 1 mg/kg, i.v.) or honokiol (0.129, 0.258 and 0.516 mg/kg, i.v.; the doses of honokiol were adjusted by the ratio of the molecular weight of honokiol to HP-TMU (266.33/514.22)) after 30 min-embolic occlusion. The densitometric analyses for the measurement of infarct volume and brain edema were performed after treatment with HP-TMU or honokiol against embolic stroke in mice. Bleeding time was measured 10 min after the i.v. administration of normal saline (isovolumetric control) or HP-TMU (0.5 and 1 mg/kg, i.v.) for 30 min.\n(§2) In addition, MCAO-induced cerebral edema in the ischemic hemisphere was reduced by the treatment of 1 mg/kg HP-TMU (FIG. 1C). […] On the other hand, increased risk of hemorrhage is a major side effect of anti-stroke treatments. To evaluate HP-TMU in this aspect, we used the mouse tail transection model as an index of hemostasis."}, "[2]": {"assay": "Plasma concentration of honokiol and pharmacokinetics after intravenous injection in rats", "details": "rat plasma, i.v.", "procedure": "Mean plasma concentrations of honokiol vs. time profile in five rats were measured after intravenous injection of HP-TMU or honokiol.\nThe plasma concentrations of honokiol at different points are expressed as mean±SD, and the mean concentration-time curve is shown in FIG. 4A."}, "[3]": {"test_system": "middle cerebral artery occlusion (MCAO)", "assay": "Neurobehavioral functions after MCAO: neurological severity scoring and rotarod test", "assay_type": "in vivo, mice", "details": "0.5 and 1 mg/kg i.v., 24 and 48 h after MCAO, P<0.05", "experimental": "Mice were subjected to middle cerebral artery occlusion (MCAO) surgery for 30 min, and then treated with the isovolumetric vehicle control (normal saline, intravenous [i.v.]) or HP-TMU (0.25, 0.5 and 1 mg/kg, i.v.) or honokiol (0.129, 0.258 and 0.516 mg/kg, i.v.). Assays of neurobehavioral functions include neurological severity scoring and the rotarod test. Evaluations were performed before and 24 and 48 h after surgery."}, "[4]": {"test_system": "middle cerebral artery occlusion (MCAO)", "assay": "Long-term recovery after MCAO by neurological severity scoring, comparison with edaravone", "assay_type": "in vivo, mice", "details": "1 mg/kg i.v.; at 1, 2, and 7 days after surgery", "experimental": "Mice were subjected to middle cerebral artery occlusion (MCAO) surgery for 30 min, and then treated with the isovolumetric vehicle control (normal saline, intravenous [i.v.]) or HP-TMU (1 mg/kg, i.v.) or edaravone (3 mg/kg, i.v.). The therapeutic effects of HP-TMU on long-term recovery were evaluated by neurological severity scoring before or 1, 2, 7, 14, and 28 days after surgery."}, "[5]": {"test_system": "middle cerebral artery occlusion (MCAO) embolic stroke", "assay": "MCAO embolic stroke in mice: infarct volume and brain edema from TTC-stained brain sections", "assay_type": "in vivo", "experimental": "as §1, §2"}},
  "data": [
    {"smiles": "C=CCc1ccc(OP(=O)(O)O)c(-c2ccc(OP(=O)([O-])[O-])c(CC=C)c2)c1.[Na+].[Na+]", "note": "[HP-TMU, sodium 3′,5-diallyl-[1,1′-biphenyl]-2,4′-diyl bis(phosphate)]", "values": [
      {"measurement": "bleeding time", "setting": "[1]", "value": "did not alter the bleeding time substantially"},
      {"measurement": "half-life compared to honokiol", "setting": "[2]", "value": "prolonged half-life compared to honokiol"},
      {"measurement": "neurobehavioral (neurological) deficit scores, 18-point scale", "setting": "[3]", "value": "significantly ameliorated these increased scores"},
      {"measurement": "decrease of rotarod duration", "setting": "[3]; vs vehicle control", "value": "significant reversed"},
      {"measurement": "long-term recovery of neurological deficit", "setting": "[4]", "value": "significantly improved"},
      {"measurement": "MCAO-induced cerebral edema in the ischemic hemisphere", "setting": "[5]; 1 mg/kg i.v.", "value": "reduced"},
      {"measurement": "infarct volume", "setting": "[5]; 0.5 and 1 mg/kg i.v. after 30 min-embolic occlusion, compared with solvent control group, P<0.05", "value": "significantly reduced the infarct volume"},
      {"measurement": "neuroprotective effects compared with honokiol", "setting": "[5]; HP-TMU 0.25, 0.5, 1 mg/kg i.v. vs honokiol 0.129, 0.258, 0.516 mg/kg i.v.", "value": "more potent neuroprotective effects than honokiol"}
    ]}
  ]
}
